From patent publication US20120015925A1, “NOVEL BENZOTHIAZEPINE AND BENZOTHIEPINE COMPOUNDS” (ASAHI KASEI PHARMA CORPORATION, priority 2004, published 2012) come the findings set out here.

As usually defined, the IC50 is the concentration needed to halve the response being measured. Higher therefore signals weaker potency.

One test concerns the target T1, rat IBAT (Rattus norvegicus, UniProt Q62633).
T1 sequence (Q62633 1-348): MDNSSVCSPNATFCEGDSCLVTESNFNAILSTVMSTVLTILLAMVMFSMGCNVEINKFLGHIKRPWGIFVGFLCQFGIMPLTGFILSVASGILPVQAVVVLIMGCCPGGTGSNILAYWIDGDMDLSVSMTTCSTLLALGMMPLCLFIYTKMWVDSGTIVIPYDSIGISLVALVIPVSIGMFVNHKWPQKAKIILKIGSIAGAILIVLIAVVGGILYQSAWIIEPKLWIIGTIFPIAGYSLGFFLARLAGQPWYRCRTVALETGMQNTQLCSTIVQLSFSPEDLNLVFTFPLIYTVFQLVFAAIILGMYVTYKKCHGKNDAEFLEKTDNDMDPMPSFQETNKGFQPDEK
Put plainly: In vitro assay using Cos 7 cells, transiently expressed rat IBAT. To be noted: [3H]-taurocholate 8 μM uptake, 37° C., 60 minutes. It is filed as cell-based. On the procedure: In the present Test Example, an in vitro assay of compounds using Cos 7 cells as to inhibitory activity on transiently expressed human IBAT or rat IBAT transporter was performed according to the method described in Am. J. Physiol., 274, G157-169.
That is, […] cells/well of Cos 7 cells were seeded in a 24-well plate, and after one day, the cells were transfected with 0.3 μg/well of cDNA of human IBAT or rat IBAT using FuGENE6 (supplied from Roche). After culturing for one day after the transfection, the cells were washed once with the assay buffer, i.e., Hanks buffer containing 25 mM glucose and 10 mM HEPES (pH 7.4). The assay buffer was then replaced with the assay buffer containing the test compound. [^3H]-Taurocholate at a final concentration of 8 μM was added thereto and incubated at 37° C. for 60 minutes so that [^3H]-taurocholate was taken into Cos 7 cells by the action of human IBAT or rat IBAT. The cells were washed twice with the assay buffer containing 1 mM taurocholate, and subsequently lysed with 0.2 M NaOH to stop the reaction. The cell lysate was added to 4 mL of liquid scintillation cocktail, which was then thoroughly vortexed. Then the radioactivity was measured using the liquid scintillation counter.

Test [1] relates to rats fed cholesterol food. The test can be described thus: Model for hepatic disorder associated with cholestasis (hepatic cell apoptosis): mitotic cells in liver. It is filed as in vivo, rat. As to conditions: oral twice per day, 4 days, total in 10 sites of 200 μm×200 μm, control group 50 ± 13. An excerpt:
In the present test example, a model for the hepatic disorder associated with cholestasis was employed with reference to apoptosis induction in hepatic cells in a hypercholesterolemia model described in Am. J. Physiol., 1995, 268, G613-G621.
That is, the food containing 0.4% cholesterol and 0.5% bile acid was given to SD (IGS) strain male rats at 7 to 9 weeks of age for 4 days, and the test compound was orally administered forcibly twice per day everyday from the starting date of cholesterol food feeding (each n=8). As a control, another group (n=8) were merely fed cholesterol food. The blood was exsanguinated from abdominal aorta 3 hours after the drug administration on the final day of the experiment. Then the liver was immediately removed and fixed in 10% neutral buffered formalin solution (brand name: FA-F96, supplied from Kokusan Chemical Co. Ltd.). After fixing, the sample was dehydrated and embedded using a closed type automatic embedding apparatus (brand name: ETP-180B, supplied from Sakura Finetek Japan). […] A total number of mitotic cells in different 10 sites in the range of 200 μm×200 μm on each section was counted.

For the next test, the system named is rats dosed bile acid. Put plainly: Model for hepatic disorder associated with cholestasis, Protocol B (bile acid without partial ligation): AST, ALT, ALP. It is filed as in vivo, rat. To be noted: Table 13, Protocol B, 0.1 mg/kg oral twice per day for 3.5 days, N=8, mean±standard error. The text has this: In the present Test Example, a model for the hepatic disorder caused by partial ligation of the bile duct was employed with reference to Kanno's method (Liver, 43, Suppl(1):A126, 2002).
That is, to the SD (IGS) strain male rats at 7 to 10 weeks of age, the partial ligation of the bile duct was given with opening the abdominal cavity under anesthesia with pentobarbital. Before the operation, the blood was collected from femoral vein, in order to obtain the value before the administration. From the day after the operation, 200 mg/kg of bile acid and the test compound were orally administered forcibly twice per day for 3.5 days (Protocol A). Without giving the partial ligation of the bile duct, 200 mg/kg of bile acid and the test compound were also orally administered forcibly twice per day for 3.5 days (Protocol B). In both cases, the test compound was dissolved or suspended in distilled water or an aqueous solution of 1% HCO 60 (Nippon Chemicals). To the control group, saline was administered. As comparative examples, 25 mg/kg of cholestyramine (supplied from Sigma) or 50 mg/kg of ursodeoxycholic acid (supplied from Mitsubishi Pharma) was administered. For considering the effect of the operation, sham operation (sham group) was performed in some cases. The blood was collected from the abdominal aorta 6 hours after the drug administration on the final day of the experiment. AST (GOT), ALT (GPT) and ALP in the blood were measured using measurement kits (GOT II-HA Test Wako, GPT II-HA Test Wako and Alkaline Phosphor HA Test Wako, all were supplied from Wako Pure Chemical Industries) and using an automatic analyzer (Nitech ANALAYZER SUPER Z818).

The target of test [2] is T2, human IBAT transporter in which alanine at position 171 has been substituted with serine (Homo sapiens, UniProt Q12908).
T2 sequence (Q12908 1-348): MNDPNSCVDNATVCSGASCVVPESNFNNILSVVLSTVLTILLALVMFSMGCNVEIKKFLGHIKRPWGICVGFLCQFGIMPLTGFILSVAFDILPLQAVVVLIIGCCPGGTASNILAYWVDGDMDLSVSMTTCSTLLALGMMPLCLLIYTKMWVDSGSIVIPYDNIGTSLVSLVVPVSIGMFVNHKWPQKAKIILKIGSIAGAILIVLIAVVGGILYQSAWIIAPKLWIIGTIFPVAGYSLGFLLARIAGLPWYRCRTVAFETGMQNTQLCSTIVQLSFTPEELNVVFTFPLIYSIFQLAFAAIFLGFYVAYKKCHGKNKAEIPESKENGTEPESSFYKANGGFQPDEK
The test can be described thus: In vitro assay using Cos 7 cells, human IBAT with alanine 171 substituted with serine. Format: cell-based. To be noted: 10 nM test compound.

The molecule `CCCCC1(CCCC)CS(=O)(=O)c2ccc(N(C)C)cc2C(c2cccc(NC(=S)Nc3ccc(C[N+](C)(C)Cc4ccccc4)cc3)c2)N1.[Br-]` (stereo not shown) [EXAMPLE 3440] returned an IC50 at rat IBAT of 10 nM. This lies in the double-digit nanomolar range.
In the case of `CCCCC1(CCCC)CS(=O)(=O)c2ccc(N(C)C)cc2C(c2cccc(NC(=S)CCCCC[N+]34CCC(CC3)CC4)c2)N1.[Br-]` (stereo not shown) [EXAMPLE 1, 1-{5-[3-(3,3-dibutyl-7-dimethylamino-1,1-dioxo-2,3,4,5-tetrahydro-1,4-benzothiazepine-5-yl)phenylthiocarbamoyl]pentyl}-1-azoniabicyclo[2.2.2]octane bromide], the “MITOTIC CELLS IN LIVER (AVERAGE ± STANDARD ERROR, n = 8)” value in test [1] (0.1 mg/kg per administration) is reported as 36 ± 13; in test [1] (1 mg/kg per administration), 28 ± 7. In addition, the ALT in the test with rats dosed bile acid (control group 82 ± 17) is 53 ± 6 IU/L. The molecule also showed an AST in the test with rats dosed bile acid (control group 157 ± 35) of 100 ± 2 IU/L. The molecule also registered an ALP in the test with rats dosed bile acid (control group 593 ± 77) of 453 ± 50 IU/L. Besides, the “Cos 7 WITH HUMAN IBAT IN WHICH 171ST ALANINE IS SUBSTITUTED WITH SERINE INHIBITION (%) AT TEST COMPOUND CONCENTRATION OF 10 nM” value in test [2] was 53%.
